Consider twelve compounds from ChEMBL document CHEMBL4602694, “Suppression of Drug-Resistant Non-Small-Cell Lung Cancer with Inhibitors Targeting Minichromosomal Maintenance Protein” (J Med Chem, 2020).

Where only a bound is given, the exact number is not on record here.

The IC50 is the concentration at which inhibition is half-maximal.

Experiment [1] deals with NCI-H1975. Kind of experiment: Antiproliferative activity against human NCI-H1975 cells assessed as reduction in cell viability incubated for 72 hrs by SRB assay. The format is functional, cell-based. Particulars: NCI-H1975, 72 h.
Experiment [2] concerns NCI-H1975. Briefly: Antitumor activity against human NCI-H1975 cells xenografted in athymic nude BALB/c mouse assessed as tumor size at 4 mg/kg, ip administered for 4 weeks (reference value: 546.2 +/- 95.2 cu.mm). The format is functional. In general terms: In xenograft studies the graft and the host belong to different species.
Experiment [3] relates to NCI-H1975. Kind of experiment: Antitumor activity against human NCI-H1975 cells xenografted in athymic nude BALB/c mouse assessed as tumor size at 1 mg/kg, ip administered for 4 weeks (reference value: 546.2 +/- 95.2 cu.mm). The format is functional.
In experiment [4] the test system is NCI-H1975. Briefly: Potency index, ratio of IC50 of AS4583 to IC50 of compound for Antiproliferative activity against human NCI-H1975 cells assessed as reduction in cell viability incubated for 72 hrs by SRB assay. It is filed as functional. In general terms: In SRB staining, fixed cells bind dye roughly in proportion to their protein.
A further experiment deals with Hs68. Kind of experiment: Cytotoxicity against human HS68 cells assessed as reduction in cell viability incubated for 72 hrs by SRB assay. The format is cell-based. Particulars: Hs68, 72 h.

Turning to `Cc1oc2ccccc2c1C(=O)NCCCn1ccnc1`, in the experiment on NCI-H1975 [1], the IC50 was more than 10 µM. For the compound `CC(C)c1oc2c(c1C(=O)NCCCn1ccnc1)C(=O)c1ccccc1C2=O`, the half-maximal inhibitory concentration (IC50) in the experiment on NCI-H1975 [1] worked out at 0.26 µM. Regarding `Cc1oc2c(c1C(=O)NCCCN1CCOCC1)C(=O)c1ccccc1C2=O`, in the experiment with NCI-H1975 [1], the half-maximal inhibitory concentration (IC50) came to 0.08 µM. In the case of `Cc1oc2c(c1C(=O)NCCCn1ccnc1)C(=O)c1ccc(F)cc1C2=O`, the values for the Activity in the experiment on NCI-H1975 [2] and with NCI-H1975 [3] were 109.5 mm3 and 128.2 mm3, respectively. Moreover, in the experiment with NCI-H1975 [1], the IC50 stood at 0.017 µM. As to `O=C1c2ccccc2C(=O)c2c1oc(-c1ccccc1)c2C(=O)NCCCn1ccnc1`, in the experiment with NCI-H1975 [1], the IC50 worked out at 0.826 µM.

Take `Cc1[nH]c2c(c1C(=O)NCCCn1ccnc1)C(=O)c1ccccc1C2=O`: the “Ratio IC50” value in the experiment with NCI-H1975 [4] came out at 100. The IC50 in the experiment with NCI-H1975 [1] is 8.73 µM. For `Cc1oc2c(c1C(=O)NCCCN1CCCC1)C(=O)c1ccccc1C2=O`, the IC50 with Hs68 amounted to 0.077 µM; in the experiment with NCI-H1975 [1] it was 0.024 µM. As for `CCc1oc2c(c1C(=O)NCCCn1ccnc1)C(=O)c1ccccc1C2=O`, the 50% inhibitory concentration (IC50) in the experiment with NCI-H1975 [1] was 0.288 µM. On the same count and under the same terms, the figure for `Cc1oc2c(c1C(=O)NCCn1ccnc1)C(=O)c1ccccc1C2=O` is 0.28 µM; for `Cc1oc2c(c1C(=O)NCCCCc1ccccc1)C(=O)c1ccccc1C2=O` it is more than 10 µM; for `Cc1oc2c(c1C(=O)NCCCCn1ccnc1)C(=O)c1ccccc1C2=O` it is 0.25 µM. The same measure, in the same setting: the figure for `Cc1oc2c(c1C(=O)NCCCn1cccc1)C(=O)c1ccccc1C2=O` is 0.918 µM.
